{
  "source": "patent US20080076729A1",
  "about": "“Interferon-beta gene therapy using an improved, regulated expression system” (Schering Aktiengesellachaft, priority 2005, published 2008)",
  "key": {"Mx1 RNA": {"tested_on": "Mx1 RNA", "experiment": "Mx1 RNA induction in PBMCs of treated mice (quantitative RT-PCR, normalized to GAPDH)", "type": "in vivo", "quoted_text": "FIG. 6 illustrates Mx1 RNA induction following i.v. (A) or i.m. injection (B) of mIFN-β protein. C57BL/6 mice were administered 15, 150, or 500 ng of purified recombinant mIFN-β protein (specific activity-2.0×10^8 units/mg) by either i.v. (via tail vein) or i.m. injection (n=3 mice per group). At the specified time points post-injection mice were bled, and RNA was isolated from PBMCs. Mx1 RNA was measured by quantitative RT-PCR. The fold increase in Mx1 RNA is expressed relative to GAPDH values measured in the same samples. The controls include naive mice (N), and mice injected with the vehicle buffer only followed by Mx1 analysis at 2 hours (V2 h) or 4 h (V4 h) post-injection. Each column represents the mean value +/− standard deviation."}, "IP-10": {"tested_on": "IP-10", "experiment": "IP-10 chemokine level in plasma/serum of treated mice by ELISA", "type": "in vivo", "method": "FIG. 7 illustrates induction levels of IP-10 (A) and JE (B) following i.v. or i.m. injection of murine IFN-β protein. C57BL/6 mice were administered 15, 150, or 500 ng of purified recombinant mIFN-β protein (specific activity=2.0×10^8 units/mg) by either i.v. (via tail vein) or i.m. injection (n=3 mice per group). The mice were bled at 2, 4, 6, 12, 24, and 48 hours post-injection, and the plasma levels of IP-10 and JE were measured by ELISA (R&D Systems).\nFIG. 8 illustrates the induction of IP-10 following intramuscular injection of AAV-1-mIFN-β DNA or mIFN-β plasmid DNA with electroporation (EP) in mice. […] Mice were bled at the indicated time points and IP-10 levels in plasma were determined by ELISA. […]\n• A. Development of mIFN-β Biomarkers: For higher sensitivity in detection of murine IFN-β (mIFN-β) activity in vivo, biomarkers for mIFN-β activity were identified in mice after injection of mIFN-β protein or mIFN-β encoded gene therapy vectors. […] In the present study, the expression of the MxA mouse homologue, Mx1, (see e.g., Hug, H et al. Mol Cell Biol 8: 3065-79; Pavlovic, J (1993) Ciba Found Symp 176: 233-43) isolated from murine peripheral blood monocytes (PBMC's) was used to detect the presence of biologically active mIFN-β. • A quantitative PCR/RT-PCR assay was developed to quantitate the levels of Mx1 mRNA in murine PBMC's. […]"}, "luciferase reporter gene": {"tested_on": "luciferase reporter gene", "experiment": "Luciferase reporter gene assay for activity of purified mIFN-β protein", "type": "cell-based", "method": "Specifically, the gene encoding mIFN-β was cloned into a pCEP4 expression vector (Invitrogen). The expression plasmid encoding mIFN-β was transiently transfected into 293E cells (Edge Biosystems) using X-tremeGene Ro-1539 Transfection Reagent (Roche). Murine IFN-β protein was purified from the medium by ion-exchange chromatography and by hydrophobic-interaction chromatography. The product was sialyzed and concentrated against dilution buffer (50 mM sodium acetate, pH 5.5, 150 mM sodium chloride, and 5% polypropylene glycol) and sterile filtered. Aliquots of the purified protein were stored at −80° C. The activity of the purified protein was assessed using a luciferase reporter gene assay (Hardy et al. (2001) Blood 97:473-482), using a commercial mIFN-β reference standard from Access Biomedical (San Diego, Calif.). The specific activity of the purified protein was 2×10^8 units/mg.\nThe positive control used for this study was Prednisolone, 2.5 mg/kg, (Sigma, St. Louis) administered by IP injection twice daily, beginning on day 1, until the end of the study. For mIFN-β protein delivery, the mice were given SC injections of purified recombinant mIFN-β protein every other day, starting on day 1 of the study (100,000 or 300,000 IU per animal per injection in 100 ul vehicle buffer). […]"}, "SJL mice with acute EAE": {"tested_on": "SJL mice with acute EAE", "experiment": "Mouse acute EAE model, daily clinical scoring", "type": "in vivo"}},
  "note": "Like-named read-outs stand apart in the source and are kept apart here.",
  "data": [
    {"substance": "mIFN-β: purified recombinant murine interferon-beta protein", "values": [
      {"measurement": "time after injection beyond which no Mx1 RNA levels above background were detected", "setting": "Mx1 RNA; bolus protein", "value": 12, "unit": "h"},
      {"measurement": "Induction of Mx1 RNA expression relative to vehicle injected mice", "setting": "Mx1 RNA; bolus protein 15, 150 or 500 ng, i.v. or i.m.", "value": "25- to 50 fold"},
      {"measurement": "Tmax of induction of all three biomarkers (Mx1, IP-10, JE)", "setting": "Mx1 RNA; bolus protein i.v. or i.m.", "value": "approximately 2 hours"},
      {"measurement": "time after injection of highest Mx1 expression levels", "setting": "Mx1 RNA; bolus protein i.v. or i.m.", "value": 2, "unit": "h"},
      {"measurement": "time post-injection within which biomarker levels dropped to background", "setting": "Mx1 RNA; bolus protein i.v. or i.m.", "value": "12 to 24", "unit": "h"},
      {"measurement": "dose giving highest Mx1 induction", "setting": "Mx1 RNA; i.v. injection, diminished at 500 ng", "value": 150, "unit": "ng"},
      {"measurement": "time by which plasma IP-10 dropped to background", "setting": "IP-10; bolus protein, each of three doses", "value": "≤ 24", "unit": "h"},
      {"measurement": "IP-10 levels increase", "setting": "IP-10; high dose (500 ng) delivered i.v., 2 hours", "value": 3000, "unit": "fold"},
      {"measurement": "specific activity of the purified protein", "setting": "luciferase reporter gene", "value": "2×10^8 international units (IU) per mg"},
      {"measurement": "specific activity of the purified protein", "setting": "luciferase reporter gene; commercial mIFN-β reference standard", "value": "2×10^8 units/mg"},
      {"measurement": "clinical scores of EAE compared to vehicle treated mice", "setting": "SJL mice with acute EAE; 30,000 units s.c. every other day, first study", "value": "did not reach statistical significance"},
      {"measurement": "clinical scores of EAE compared to vehicle control", "setting": "SJL mice with acute EAE; 100,000 Units s.c. every other day, second study (FIG. 12)", "value": "significantly decreased clinical scores"},
      {"measurement": "severity of the disease (clinical scores) compared to vehicle treated animals", "setting": "SJL mice with acute EAE; 100,000 or 300,000 units SC every other day, 25 day study (FIG. 39A)", "value": "significantly reduced the severity of the disease"},
      {"measurement": "clinical scores of EAE compared with vehicle treated mice", "setting": "SJL mice with acute EAE; 100,000 units s.c. every other day, first study (FIG. 11)", "value": "significantly decreased clinical scores"}
    ]}
  ]
}
